Test results published in ChEMBL document CHEMBL1201862, “PubChem BioAssay data set” (2004).
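All cell lines were grown in 96-well plates and treated with compound for 48 hours. At the GI50, growth is halved.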 Activity calls are given as the source filed them. No stated cut-off is given here; in the data, active = GI50 up to about 1.1 µM and inactive = higher.

What was measured:
Assay in all cases: growth of human tumour cells (NCI), 48 h
786-0 = system: 786-0
A498 = system: A498
A549 = system: A549
ACHN = system: ACHN
CAKI-1 = system: CAKI-1
CCRF-CEM = system: CCRF-CEM
DLD-1 = system: DLD-1
DMS-114 = system: DMS-114
DMS-273 = system: DMS-273
EKVX = system: EKVX
HCC 2998 = system: HCC 2998
HCT-15 = system: HCT-15
HL-60 = system: HL-60
HOP-18 = system: HOP-18
HOP-62 = system: HOP-62
HOP-92 = system: HOP-92
HT-29 = system: HT-29
IGROV-1 = system: IGROV-1
K562 = system: K562
LOX IMVI = system: LOX IMVI
LXFL 529 = system: LXFL 529
M14 = system: M14
M19-MEL = system: M19-MEL
MOLT-4 = system: MOLT-4
Malme-3M = system: Malme-3M
NCI-H226 = system: NCI-H226
NCI-H23 = system: NCI-H23
NCI-H522 = system: NCI-H522
OVCAR-3 = system: OVCAR-3
OVCAR-4 = system: OVCAR-4
OVCAR-5 = system: OVCAR-5
OVCAR-8 = system: OVCAR-8
RXF 393 = system: RXF 393
RXF 631 = system: RXF 631
SF-268 = system: SF-268
SF-295 = system: SF-295
SF-539 = system: SF-539
SK-MEL-28 = system: SK-MEL-28
SK-MEL-2 = system: SK-MEL-2
SK-OV-3 = system: SK-OV-3
SN12C = system: SN12C
SNB-75 = system: SNB-75
SNB-78 = system: SNB-78
SW-620 = system: SW-620
TK-10 = system: TK-10
U-251 = system: U-251
UACC-257 = system: UACC-257
UO-31 = system: UO-31
BT-549 = system: BT-549
COLO 205 = system: COLO 205
DU-145 = system: DU-145
HCT-116 = system: HCT-116
Hs-578T = system: Hs-578T
KM-20L2 = system: KM-20L2
KM12 = system: KM12
MCF7 = system: MCF7
MDA-MB-231 = system: MDA-MB-231
MDA-MB-435 = system: MDA-MB-435
MDA-N = system: MDA-N
NCI-H460 = system: NCI-H460
NCI/ADR-RES = system: NCI/ADR-RES
PC-3 = system: PC-3
RPMI-8226 = system: RPMI-8226
SK-MEL-5 = system: SK-MEL-5
SNB-19 = system: SNB-19
SR = system: SR
T47D = system: T47D
UACC-62 = system: UACC-62

Question: CN(C)C(=S)/N=c1\ss/c(=N\c2ccccc2)n1-c1ccccc1 was tested. Which GI50 (786-0) did it give?
Answer: 16100 nM (inactive)

Question: What about the GI50 (A498) of the same compound?
Answer: 34000 nM (inactive)

Question: What about the GI50 (A549) of the same compound?
Answer: 25600 nM (inactive)

Question: And the GI50 (ACHN)?
Answer: 25200 nM (inactive)

Question: And the GI50 (CAKI-1)?
Answer: 34300 nM (inactive)

Question: What about the GI50 (CCRF-CEM) of the same compound?
Answer: 435 nM (active)

Question: What about the GI50 (DLD-1) of the same compound?
Answer: 28400 nM (inactive)

Question: What about the GI50 (DMS-114) of the same compound?
Answer: 1440 nM (inactive)

Question: And the GI50 (DMS-273)?
Answer: 16600 nM (inactive)

Question: And the GI50 (EKVX)?
Answer: 37300 nM (inactive)

Question: And the GI50 (HCC 2998)?
Answer: 18700 nM (inactive)

Question: What about the GI50 (HCT-15) of the same compound?
Answer: 23200 nM

Question: And the GI50 (HL-60)?
Answer: 24600 nM (inactive)

Question: What about the GI50 (HOP-18) of the same compound?
Answer: 28500 nM (inactive)

Question: What about the GI50 (HOP-62) of the same compound?
Answer: 27200 nM (inactive)

Question: What about the GI50 (HOP-92) of the same compound?
Answer: 12500 nM (inactive)

Question: And the GI50 (HT-29)?
Answer: 154 nM (active)

Question: And the GI50 (IGROV-1)?
Answer: 25100 nM (inactive)

Question: What about the GI50 (K562) of the same compound?
Answer: 11200 nM (inactive)

Question: What about the GI50 (LOX IMVI) of the same compound?
Answer: 17100 nM (inactive)

Question: What about the GI50 (LXFL 529) of the same compound?
Answer: 54.2 nM (active)

Question: What about the GI50 (M14) of the same compound?
Answer: 14700 nM (inactive)

Question: And the GI50 (M19-MEL)?
Answer: 24700 nM (inactive)

Question: What about the GI50 (MOLT-4) of the same compound?
Answer: 30000 nM (inactive)

Question: And the GI50 (Malme-3M)?
Answer: 21300 nM (inactive)

Question: What about the GI50 (NCI-H226) of the same compound?
Answer: 10700 nM (inactive)

Question: What about the GI50 (NCI-H23) of the same compound?
Answer: 25800 nM (inactive)

Question: And the GI50 (NCI-H522)?
Answer: 1210 nM (inactive)

Question: What about the GI50 (OVCAR-3) of the same compound?
Answer: 13700 nM (inactive)

Question: What about the GI50 (OVCAR-4) of the same compound?
Answer: 275 nM (active)

Question: And the GI50 (OVCAR-5)?
Answer: > 100000 nM (inactive)

Question: And the GI50 (OVCAR-8)?
Answer: 19200 nM (inactive)

Question: And the GI50 (RXF 393)?
Answer: 16300 nM (inactive)

Question: What about the GI50 (RXF 631) of the same compound?
Answer: 29900 nM (inactive)

Question: And the GI50 (SF-268)?
Answer: 21600 nM (inactive)

Question: What about the GI50 (SF-295) of the same compound?
Answer: 28600 nM (inactive)

Question: And the GI50 (SF-539)?
Answer: 16300 nM (inactive)

Question: And the GI50 (SK-MEL-28)?
Answer: 29000 nM (inactive)

Question: And the GI50 (SK-MEL-2)?
Answer: 29500 nM (inactive)

Question: What about the GI50 (SK-OV-3) of the same compound?
Answer: 40600 nM (inactive)

Question: And the GI50 (SN12C)?
Answer: 49500 nM (inactive)

Question: And the GI50 (SNB-75)?
Answer: 14800 nM (inactive)

Question: What about the GI50 (SNB-78) of the same compound?
Answer: 20700 nM (inactive)

Question: What about the GI50 (SW-620) of the same compound?
Answer: 25000 nM (inactive)

Question: What about the GI50 (TK-10) of the same compound?
Answer: 25800 nM (inactive)

Question: What about the GI50 (U-251) of the same compound?
Answer: 24700 nM (inactive)

Question: What about the GI50 (UACC-257) of the same compound?
Answer: 24200 nM (inactive)

Question: And the GI50 (UO-31)?
Answer: 32900 nM (inactive)

Question: Which GI50 (786-0) does the source give for O=c1c2cc(Cl)ccc2n2nnc3ccc(NCCNCCO)c1c32 here?
Answer: 741 nM (active)

Question: And the GI50 (A498)?
Answer: 1440 nM (inactive)

Question: And the GI50 (A549)?
Answer: 719 nM (active)

Question: What about the GI50 (ACHN) of the same compound?
Answer: 682 nM (active)

Question: And the GI50 (BT-549)?
Answer: 1790 nM (inactive)

Question: And the GI50 (CAKI-1)?
Answer: 1830 nM (inactive)

Question: What about the GI50 (CCRF-CEM) of the same compound?
Answer: 560 nM (active)

Question: What about the GI50 (COLO 205) of the same compound?
Answer: 977 nM (active)

Question: What about the GI50 (DLD-1) of the same compound?
Answer: 1200 nM (inactive)

Question: And the GI50 (DMS-114)?
Answer: 1490 nM (inactive)

Question: And the GI50 (DMS-273)?
Answer: 641 nM (active)

Question: What about the GI50 (DU-145) of the same compound?
Answer: 3440 nM (inactive)

Question: What about the GI50 (EKVX) of the same compound?
Answer: 1930 nM (inactive)

Question: And the GI50 (HCC 2998)?
Answer: 1370 nM (inactive)

Question: And the GI50 (HCT-116)?
Answer: 419 nM (active)

Question: What about the GI50 (HCT-15) of the same compound?
Answer: 718 nM

Question: And the GI50 (HL-60)?
Answer: 1780 nM (inactive)

Question: What about the GI50 (HOP-62) of the same compound?
Answer: 1410 nM (inactive)

Question: What about the GI50 (HOP-92) of the same compound?
Answer: 2020 nM (inactive)

Question: And the GI50 (HT-29)?
Answer: 575 nM (active)

Question: What about the GI50 (Hs-578T) of the same compound?
Answer: 1780 nM (inactive)

Question: And the GI50 (IGROV-1)?
Answer: 2110 nM (inactive)

Question: What about the GI50 (K562) of the same compound?
Answer: 589 nM (active)

Question: What about the GI50 (KM-20L2) of the same compound?
Answer: 962 nM (active)

Question: And the GI50 (KM12)?
Answer: 1090 nM (active)

Question: And the GI50 (LOX IMVI)?
Answer: 583 nM (active)

Question: What about the GI50 (LXFL 529) of the same compound?
Answer: 1090 nM (active)

Question: What about the GI50 (M14) of the same compound?
Answer: 1380 nM (inactive)

Question: And the GI50 (M19-MEL)?
Answer: 1550 nM (inactive)

Question: And the GI50 (MCF7)?
Answer: 2760 nM (inactive)

Question: And the GI50 (MDA-MB-231)?
Answer: 1470 nM (inactive)

Question: And the GI50 (MDA-MB-435)?
Answer: 1120 nM (inactive)

Question: And the GI50 (MDA-N)?
Answer: 1100 nM (active)

Question: And the GI50 (MOLT-4)?
Answer: 394 nM (active)

Question: And the GI50 (Malme-3M)?
Answer: 2090 nM (inactive)

Question: And the GI50 (NCI-H226)?
Answer: 2110 nM (inactive)

Question: And the GI50 (NCI-H23)?
Answer: 1360 nM (inactive)

Question: And the GI50 (NCI-H460)?
Answer: 378 nM (active)

Question: What about the GI50 (NCI-H522) of the same compound?
Answer: 1330 nM (inactive)

Question: What about the GI50 (NCI/ADR-RES) of the same compound?
Answer: 665 nM (active)

Question: And the GI50 (OVCAR-3)?
Answer: 1590 nM (inactive)

Question: What about the GI50 (OVCAR-4) of the same compound?
Answer: 1010 nM (active)

Question: And the GI50 (OVCAR-5)?
Answer: 1640 nM (inactive)

Question: And the GI50 (OVCAR-8)?
Answer: 614 nM (active)

Question: What about the GI50 (PC-3) of the same compound?
Answer: 1160 nM (inactive)

Question: And the GI50 (RPMI-8226)?
Answer: 1530 nM (inactive)

Question: And the GI50 (RXF 393)?
Answer: 1790 nM (inactive)

Question: What about the GI50 (RXF 631) of the same compound?
Answer: 1070 nM (active)

Question: What about the GI50 (SF-268) of the same compound?
Answer: 2740 nM (inactive)

Question: And the GI50 (SF-295)?
Answer: 689 nM (active)

Question: What about the GI50 (SF-539) of the same compound?
Answer: 1800 nM (inactive)

Question: What about the GI50 (SK-MEL-28) of the same compound?
Answer: 1790 nM (inactive)

Question: What about the GI50 (SK-MEL-2) of the same compound?
Answer: 2090 nM (inactive)

Question: And the GI50 (SK-MEL-5)?
Answer: 1480 nM (inactive)

Question: What about the GI50 (SK-OV-3) of the same compound?
Answer: 2670 nM (inactive)

Question: And the GI50 (SN12C)?
Answer: 731 nM (active)

Question: And the GI50 (SNB-19)?
Answer: 1500 nM (inactive)

Question: And the GI50 (SNB-75)?
Answer: 75.3 nM (active)

Question: What about the GI50 (SNB-78) of the same compound?
Answer: 2350 nM (inactive)

Question: What about the GI50 (SR) of the same compound?
Answer: 641 nM (active)

Question: What about the GI50 (SW-620) of the same compound?
Answer: 466 nM (active)

Question: And the GI50 (T47D)?
Answer: 5150 nM (inactive)

Question: And the GI50 (TK-10)?
Answer: 2400 nM (inactive)

Question: What about the GI50 (U-251) of the same compound?
Answer: 853 nM (active)

Question: What about the GI50 (UACC-257) of the same compound?
Answer: 1780 nM (inactive)

Question: And the GI50 (UACC-62)?
Answer: 2310 nM (inactive)

Question: What about the GI50 (UO-31) of the same compound?
Answer: 1170 nM (inactive)
